Measurements taken from patent US7579356B2, “Thia-tetraazaacenaphthylene kinase inhibitors” (Janssen Pharmaceutica NV, priority 2005, dated 2009).

How the values were obtained:
EGFR = target: T1, EGFR (Homo sapiens, UniProt P00533); experiment: EGFR Kinase Assay; format: biochemical; settings: for IC50: GST-EGFR, ATP 5 μM; for inhibition at 2 µM: test concentration of 2 μM, compounds without an IC50, read-out: EGFR inhibition in percent
T1 construct: The intracellular portion of EGFR started at nucleotide 2189 (corresponding to amino acid 667) and ended at the termination codon; made in house; host or cells: Sf9 insect cells (baculovirus)
T1 sequence (P00533 669-1210 limits assumed): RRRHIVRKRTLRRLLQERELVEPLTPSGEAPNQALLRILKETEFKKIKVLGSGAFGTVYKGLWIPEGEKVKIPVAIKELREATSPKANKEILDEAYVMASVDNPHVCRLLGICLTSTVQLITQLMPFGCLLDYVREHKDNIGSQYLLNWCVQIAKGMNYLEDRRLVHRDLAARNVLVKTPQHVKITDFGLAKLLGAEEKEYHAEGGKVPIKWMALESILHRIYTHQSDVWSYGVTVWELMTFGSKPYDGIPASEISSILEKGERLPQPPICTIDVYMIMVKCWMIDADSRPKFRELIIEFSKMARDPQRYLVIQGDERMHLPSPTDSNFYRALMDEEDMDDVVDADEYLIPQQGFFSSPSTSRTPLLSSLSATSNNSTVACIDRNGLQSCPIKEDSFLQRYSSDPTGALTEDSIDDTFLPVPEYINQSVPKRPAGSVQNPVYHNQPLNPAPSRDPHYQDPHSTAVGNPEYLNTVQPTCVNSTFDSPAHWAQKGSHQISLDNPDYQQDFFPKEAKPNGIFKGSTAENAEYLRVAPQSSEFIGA
Method in brief: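 Potency came from triplicate 16-point half-log titrations starting at 200 uM, with IC50 fitted from % inhibition against log concentration, or % inhibition at 2 μM otherwise. Reaction: Sf9-made GST–EGFR cytoplasmic region (aa 667 onward), biotin-polyGluTyr, 5 μM ATP with 33P tracer, pH 8.0 Tris/Mg/vanadate/DTT, 30 °C for 1 h; captured on streptavidin Flashplates and counted.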

HER-2 = target: T2, HER-2 (Homo sapiens, UniProt P04626); experiment: HER-2 Kinase Assay; format: biochemical; settings: value in parentheses
T2 construct: His6 with thrombin site (N); purchased Proqinase (Freiburg, Germany)
T2 sequence (P04626 679-1255): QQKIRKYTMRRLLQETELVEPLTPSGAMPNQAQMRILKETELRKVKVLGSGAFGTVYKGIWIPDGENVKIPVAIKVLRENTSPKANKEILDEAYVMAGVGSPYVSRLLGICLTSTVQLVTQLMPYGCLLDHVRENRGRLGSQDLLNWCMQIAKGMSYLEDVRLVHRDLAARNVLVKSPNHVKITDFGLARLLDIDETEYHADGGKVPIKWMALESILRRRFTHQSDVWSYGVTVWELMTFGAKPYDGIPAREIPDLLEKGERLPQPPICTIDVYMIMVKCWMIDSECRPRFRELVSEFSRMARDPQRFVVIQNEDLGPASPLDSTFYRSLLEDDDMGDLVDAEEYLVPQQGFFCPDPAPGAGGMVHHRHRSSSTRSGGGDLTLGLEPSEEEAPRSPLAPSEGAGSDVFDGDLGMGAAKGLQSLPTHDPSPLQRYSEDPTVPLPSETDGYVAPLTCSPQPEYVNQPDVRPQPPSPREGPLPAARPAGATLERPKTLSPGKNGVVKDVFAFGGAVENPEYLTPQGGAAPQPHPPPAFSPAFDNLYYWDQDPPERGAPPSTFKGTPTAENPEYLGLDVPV
Method in brief: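 Read-out was scintillation counting of 33P incorporated into biotinylated polyGluTyr captured on streptavidin plates. Reactions ran 1 h at 30 °C with GST-fused HER-2 residues 679–1255, 1 μM ATP, Mn2+ and Mg2+ at pH 7.5; data given as percent inhibition at 1 μM, with IC50 where determined.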

Row | IC50 (EGFR) [nM] | IC50 (HER-2) [nM] | inhibition at 2 µM (EGFR) [%] | Compound
1 | 17 | 79 | – | COc1cc(NC(=O)c2sc3ncnc4c3c2NC(=O)N4c2cccc(Br)c2)ccc1CN1CCOCC1 [Cpd 184, 5-(3-bromo-phenyl)-4-oxo-4,5-dihydro-3H-1-thia-3,5,6,8-tetraaza-acenaphthylene-2-carboxylic acid (3-methoxy-4-morpholin-4-ylmethyl-phenyl)-amide]
2 | 121 | 248 | – | O=C(Nc1ccc(CN2CCOCC2)cc1)c1sc2ncnc3c2c1NC(=O)N3c1ccc(Oc2ccccc2)c(Br)c1 [Cpd 187, 5-(3-bromo-4-phenoxy-phenyl)-4-oxo-4,5-dihydro-3H-1-thia-3,5,6,8-tetraaza-acenaphthylene-2-carboxylic acid (4-morpholin-4-ylmethyl-phenyl)-amide]
3 | 49 | 83 | – | O=C(Nc1ccc(CN2CCCCC2)cc1)c1sc2ncnc3c2c1NC(=O)N3c1ccc(Oc2ccccc2)c(Br)c1 [Cpd 188, 5-(3-bromo-4-phenoxy-phenyl)-4-oxo-4,5-dihydro-3H-1-thia-3,5,6,8-tetraaza-acenaphthylene-2-carboxylic acid (4-piperidin-1-ylmethyl-phenyl)-amide]
4 | 83 | 72 | – | COc1cc(NC(=O)c2sc3ncnc4c3c2NC(=O)N4c2ccc(Oc3ccccc3)c(Br)c2)ccc1CN1CCOCC1 [Cpd 189, 5-(3-bromo-4-phenoxy-phenyl)-4-oxo-4,5-dihydro-3H-1-thia-3,5,6,8-tetraaza-acenaphthylene-2-carboxylic acid (3-methoxy-4-morpholin-4-ylmethyl-phenyl)-amide]
5 | 18 | 62 | – | CN1CCC(NC(=O)c2sc3ncnc4c3c2NC(=O)N4c2ccc(Sc3ccccc3)cc2)CC1 [Cpd 191, 4-oxo-5-(4-phenylsulfanyl-phenyl)-4,5-dihydro-3H-1-thia-3,5,6,8-tetraaza-acenaphthylene-2-carboxylic acid (1-methyl-piperidin-4-yl)-amide]
6 | 410 | > 1000 | – | O=C(Nc1ccc(CN2CCCCC2)cc1)c1sc2ncnc3c2c1NC(=O)N3c1ccc2nc(Cc3cccc(F)c3)[nH]c2c1 [Cpd 192, 5-[2-(3-fluoro-benzyl)-3H-benzoimidazol-5-yl]-4-oxo-4,5-dihydro-3H-1-thia-3,5,6,8-tetraaza-acenaphthylene-2-carboxylic acid (4-piperidin-1-ylmethyl-phenyl)-amide]
7 | 704 | > 1000 | – | O=C(Nc1ccc(CN2CCOCC2)cc1)c1sc2ncnc3c2c1NC(=O)N3c1ccc2nc(Cc3cccc(F)c3)[nH]c2c1 [Cpd 193, 5-[2-(3-fluoro-benzyl)-3H-benzoimidazol-5-yl]-4-oxo-4,5-dihydro-3H-1-thia-3,5,6,8-tetraaza-acenaphthylene-2-carboxylic acid (4-morpholin-4-ylmethyl-phenyl)-amide]
8 | – | 5770 | 31 | CN1CCC(NC(=O)c2sc3ncnc4c3c2NC(=O)N4c2ccc3nc(Cc4cccc(F)c4)[nH]c3c2)CC1 [Cpd 194, 5-[2-(3-fluoro-benzyl)-3H-benzoimidazol-5-yl]-4-oxo-4,5-dihydro-3H-1-thia-3,5,6,8-tetraaza-acenaphthylene-2-carboxylic acid (1-methyl-piperidin-4-yl)-amide]
9 | 97 | 94 | – | O=C(Nc1ccc(CN2CCCCC2)cc1)c1sc2ncnc3c2c1NC(=O)N3c1ccc(Br)cc1 [Cpd 195, 5-(4-bromo-phenyl)-4-oxo-4,5-dihydro-3H-1-thia-3,5,6,8-tetraaza-acenaphthylene-2-carboxylic acid (4-piperidin-1-ylmethyl-phenyl)-amide]
10 | 206 | 122 | – | O=C(Nc1ccc(CN2CCOCC2)cc1)c1sc2ncnc3c2c1NC(=O)N3c1ccc(Br)cc1 [Cpd 196, 5-(4-bromo-phenyl)-4-oxo-4,5-dihydro-3H-1-thia-3,5,6,8-tetraaza-acenaphthylene-2-carboxylic acid (4-morpholin-4-ylmethyl-phenyl)-amide]
11 | 39 | 175 | – | O=C(Nc1ccc(CN2CCCCC2)cc1)c1sc2ncnc3c2c1NC(=O)N3c1cccc(Oc2ccccc2)c1 [Cpd 197, 4-oxo-5-(3-phenoxy-phenyl)-4,5-dihydro-3H-1-thia-3,5,6,8-tetraaza-acenaphthylene-2-carboxylic acid (4-piperidin-1-ylmethyl-phenyl)-amide]
12 | 155 | 613 | – | CN1CCN(Cc2ccc(NC(=O)c3sc4ncnc5c4c3NC(=O)N5c3cccc(Oc4ccccc4)c3)cc2)CC1 [Cpd 199, 4-oxo-5-(3-phenoxy-phenyl)-4,5-dihydro-3H-1-thia-3,5,6,8-tetraaza-acenaphthylene-2-carboxylic acid [4-(4-methyl-piperazin-1-ylmethyl)-phenyl]-amide]
13 | 89 | 130 | – | COc1cc(NC(=O)c2sc3ncnc4c3c2NC(=O)N4c2cccc(Oc3ccccc3)c2)ccc1CN1CCOCC1 [Cpd 200, 4-oxo-5-(3-phenoxy-phenyl)-4,5-dihydro-3H-1-thia-3,5,6,8-tetraaza-acenaphthylene-2-carboxylic acid (3-methoxy-4-morpholin-4-ylmethyl-phenyl)-amide]
14 | 106 | 92 | – | COc1cc(NC(=O)c2sc3ncnc4c3c2NC(=O)N4c2ccc(Br)cc2)ccc1CN1CCOCC1 [Cpd 201, 5-(4-bromo-phenyl)-4-oxo-4,5-dihydro-3H-1-thia-3,5,6,8-tetraaza-acenaphthylene-2-carboxylic acid (3-methoxy-4-morpholin-4-ylmethyl-phenyl)-amide]
15 | – | > 100000 | 31 | COc1ccc(C(=O)c2sc3ncnc4c3c2NC(=O)N4c2ccc(Oc3ccccc3)cc2)cc1OC [Cpd 202]
16 | 35 | 60 | – | O=C(Nc1ccc(CN2CCOCC2)c(F)c1)c1sc2ncnc3c2c1NC(=O)N3c1ccc(Oc2ccccc2)cc1 [Cpd 203, 4-oxo-5-(4-phenoxy-phenyl)-4,5-dihydro-3H-1-thia-3,5,6,8-tetraaza-acenaphthylene-2-carboxylic acid (3-fluoro-4-morpholin-4-ylmethyl-phenyl)-amide]
17 | 689 | 1440 | – | O=C(Nc1ccc(CN2CCCCC2)cc1)c1sc2ncnc3c2c1NC(=O)N3c1ccc([S+]([O-])c2ccccc2)cc1 (centres unmarked) [Cpd 205, 5-(4-benzenesulfinyl-phenyl)-4-oxo-4,5-dihydro-3H-1-thia-3,5,6,8-tetraaza-acenaphthylene-2-carboxylic acid (4-piperidin-1-ylmethyl-phenyl)-amide]
18 | – | ~100000 | 12 | CCOC(=O)C=Cc1ccc(NC(=O)c2sc3ncnc4c3c2NC(=O)N4c2ccc3nc(Cc4cccc(F)c4)[nH]c3c2)cc1 [Cpd 206, 3-[4-({5-[2-(3-fluoro-benzyl)-3H-benzoimidazol-5-yl]-4-oxo-4,5-dihydro-3H-1-thia-3,5,6,8-tetraaza-acenaphthylene-2-carbonyl}-amino)-phenyl]-acrylic acid ethyl ester]
19 | 16 | 15 | – | CCOc1cc(NC(=O)c2sc3ncnc4c3c2NC(=O)N4c2ccc(Oc3ccccc3)cc2)ccc1CN1CCOCC1 [Cpd 207, 4-oxo-5-(4-phenoxy-phenyl)-4,5-dihydro-3H-1-thia-3,5,6,8-tetraaza-acenaphthylene-2-carboxylic acid (3-ethoxy-4-morpholin-4-ylmethyl-phenyl)-amide]
20 | 133 | 57 | – | O=C(Nc1ccc(CN2CCOCC2)cc1)c1sc2ncnc3c2c1NC(=O)N3c1ccc(Oc2cccnc2)c(Cl)c1 [Cpd 208, 5-[3-chloro-4-(pyridin-3-yloxy)-phenyl]-4-oxo-4,5-dihydro-3H-1-thia-3,5,6,8-tetraaza-acenaphthylene-2-carboxylic acid (4-morpholin-4-ylmethyl-phenyl)-amide]
21 | 101 | 72 | – | O=C(Nc1ccc(CN2CCCCC2)cc1)c1sc2ncnc3c2c1NC(=O)N3c1ccc(Oc2cccnc2)c(Cl)c1 [Cpd 209, 5-[3-chloro-4-(pyridin-3-yloxy)-phenyl]-4-oxo-4,5-dihydro-3H-1-thia-3,5,6,8-tetraaza-acenaphthylene-2-carboxylic acid (4-piperidin-1-ylmethyl-phenyl)-amide]
22 | 615 | > 10000 | – | CCOC(=O)c1sc2ncnc3c2c1NC(=O)N3c1ccc(Sc2ccccc2)cc1 [Cpd 210, 4-oxo-5-(4-phenylsulfanyl-phenyl)-4,5-dihydro-3H-1-thia-3,5,6,8-tetraaza-acenaphthylene-2-carboxylic acid ethyl ester]
23 | 63 | 518 | – | CN1CCC(NC(=O)c2sc3ncnc4c3c2NC(=O)N4c2ccc(Oc3ccccc3)cc2)CC1 [Cpd 211, 4-oxo-5-(4-phenoxy-phenyl)-4,5-dihydro-3H-1-thia-3,5,6,8-tetraaza-acenaphthylene-2-carboxylic acid (1-methyl-piperidin-4-yl)-amide]
24 | 36 | 168 | – | CN(C)CCCNC(=O)c1sc2ncnc3c2c1NC(=O)N3c1ccc(Sc2ccccc2)cc1 [Cpd 212, 4-oxo-5-(4-phenylsulfanyl-phenyl)-4,5-dihydro-3H-1-thia-3,5,6,8-tetraaza-acenaphthylene-2-carboxylic acid (3-dimethylamino-propyl)-amide]
25 | – | > 10000 | 48 | O=C(c1sc2ncnc3c2c1NC(=O)N3c1ccc(Oc2ccccc2)cc1)N1CCN(CCN2CCOCC2)CC1 [Cpd 213, 2-[4-(2-morpholin-4-yl-ethyl)-piperazine-1-carbonyl]-5-(4-phenoxy-phenyl)-3H,5H-1-thia-3,5,6,8-tetraaza-acenaphthylen-4-one]
